From ChEMBL document CHEMBL4507301 (2021)

Columns and labels:
[1] = target: Ribosomal protein S6 kinase alpha-3 (Homo sapiens) (UniProt P51812); settings: Compound concentration 1000.0 nM
[2] = target: Tyrosine-protein kinase ABL1 (Homo sapiens) (UniProt P00519); settings: Compound concentration 1000.0 nM
[3] = target: SRSF protein kinase 2 (Homo sapiens) (UniProt P78362); settings: Compound concentration 1000.0 nM
[4] = target: Phosphatidylinositol 4-phosphate 5-kinase type-1 alpha (Homo sapiens) (UniProt Q99755); settings: Compound concentration 1000.0 nM
[5] = target: Serine/threonine-protein kinase 26 (Homo sapiens) (UniProt Q9P289); settings: Compound concentration 1000.0 nM
Sequence of Serine/threonine-protein kinase 26 (Homo sapiens) (Q9P289 2-416 limits assumed): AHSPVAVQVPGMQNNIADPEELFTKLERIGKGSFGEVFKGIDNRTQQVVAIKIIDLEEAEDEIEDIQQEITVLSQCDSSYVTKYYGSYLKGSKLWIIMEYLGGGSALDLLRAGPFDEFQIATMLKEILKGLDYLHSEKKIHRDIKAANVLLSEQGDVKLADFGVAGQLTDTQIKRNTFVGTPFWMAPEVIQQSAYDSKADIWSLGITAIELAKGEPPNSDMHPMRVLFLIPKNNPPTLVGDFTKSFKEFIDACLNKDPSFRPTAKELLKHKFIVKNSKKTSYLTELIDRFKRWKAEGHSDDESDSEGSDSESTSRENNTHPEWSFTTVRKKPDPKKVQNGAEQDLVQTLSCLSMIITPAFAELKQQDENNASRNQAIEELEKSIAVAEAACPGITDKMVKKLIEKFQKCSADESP

[6] = target: Serine/threonine-protein kinase Nek7 (Homo sapiens) (UniProt Q8TDX7); settings: Compound concentration 1000.0 nM
[7] = target: Serine/threonine-protein kinase WNK2 (Homo sapiens) (UniProt Q9Y3S1); settings: Compound concentration 1000.0 nM
Sequence of Serine/threonine-protein kinase WNK2 (Homo sapiens) (Q9Y3S1 whole entry): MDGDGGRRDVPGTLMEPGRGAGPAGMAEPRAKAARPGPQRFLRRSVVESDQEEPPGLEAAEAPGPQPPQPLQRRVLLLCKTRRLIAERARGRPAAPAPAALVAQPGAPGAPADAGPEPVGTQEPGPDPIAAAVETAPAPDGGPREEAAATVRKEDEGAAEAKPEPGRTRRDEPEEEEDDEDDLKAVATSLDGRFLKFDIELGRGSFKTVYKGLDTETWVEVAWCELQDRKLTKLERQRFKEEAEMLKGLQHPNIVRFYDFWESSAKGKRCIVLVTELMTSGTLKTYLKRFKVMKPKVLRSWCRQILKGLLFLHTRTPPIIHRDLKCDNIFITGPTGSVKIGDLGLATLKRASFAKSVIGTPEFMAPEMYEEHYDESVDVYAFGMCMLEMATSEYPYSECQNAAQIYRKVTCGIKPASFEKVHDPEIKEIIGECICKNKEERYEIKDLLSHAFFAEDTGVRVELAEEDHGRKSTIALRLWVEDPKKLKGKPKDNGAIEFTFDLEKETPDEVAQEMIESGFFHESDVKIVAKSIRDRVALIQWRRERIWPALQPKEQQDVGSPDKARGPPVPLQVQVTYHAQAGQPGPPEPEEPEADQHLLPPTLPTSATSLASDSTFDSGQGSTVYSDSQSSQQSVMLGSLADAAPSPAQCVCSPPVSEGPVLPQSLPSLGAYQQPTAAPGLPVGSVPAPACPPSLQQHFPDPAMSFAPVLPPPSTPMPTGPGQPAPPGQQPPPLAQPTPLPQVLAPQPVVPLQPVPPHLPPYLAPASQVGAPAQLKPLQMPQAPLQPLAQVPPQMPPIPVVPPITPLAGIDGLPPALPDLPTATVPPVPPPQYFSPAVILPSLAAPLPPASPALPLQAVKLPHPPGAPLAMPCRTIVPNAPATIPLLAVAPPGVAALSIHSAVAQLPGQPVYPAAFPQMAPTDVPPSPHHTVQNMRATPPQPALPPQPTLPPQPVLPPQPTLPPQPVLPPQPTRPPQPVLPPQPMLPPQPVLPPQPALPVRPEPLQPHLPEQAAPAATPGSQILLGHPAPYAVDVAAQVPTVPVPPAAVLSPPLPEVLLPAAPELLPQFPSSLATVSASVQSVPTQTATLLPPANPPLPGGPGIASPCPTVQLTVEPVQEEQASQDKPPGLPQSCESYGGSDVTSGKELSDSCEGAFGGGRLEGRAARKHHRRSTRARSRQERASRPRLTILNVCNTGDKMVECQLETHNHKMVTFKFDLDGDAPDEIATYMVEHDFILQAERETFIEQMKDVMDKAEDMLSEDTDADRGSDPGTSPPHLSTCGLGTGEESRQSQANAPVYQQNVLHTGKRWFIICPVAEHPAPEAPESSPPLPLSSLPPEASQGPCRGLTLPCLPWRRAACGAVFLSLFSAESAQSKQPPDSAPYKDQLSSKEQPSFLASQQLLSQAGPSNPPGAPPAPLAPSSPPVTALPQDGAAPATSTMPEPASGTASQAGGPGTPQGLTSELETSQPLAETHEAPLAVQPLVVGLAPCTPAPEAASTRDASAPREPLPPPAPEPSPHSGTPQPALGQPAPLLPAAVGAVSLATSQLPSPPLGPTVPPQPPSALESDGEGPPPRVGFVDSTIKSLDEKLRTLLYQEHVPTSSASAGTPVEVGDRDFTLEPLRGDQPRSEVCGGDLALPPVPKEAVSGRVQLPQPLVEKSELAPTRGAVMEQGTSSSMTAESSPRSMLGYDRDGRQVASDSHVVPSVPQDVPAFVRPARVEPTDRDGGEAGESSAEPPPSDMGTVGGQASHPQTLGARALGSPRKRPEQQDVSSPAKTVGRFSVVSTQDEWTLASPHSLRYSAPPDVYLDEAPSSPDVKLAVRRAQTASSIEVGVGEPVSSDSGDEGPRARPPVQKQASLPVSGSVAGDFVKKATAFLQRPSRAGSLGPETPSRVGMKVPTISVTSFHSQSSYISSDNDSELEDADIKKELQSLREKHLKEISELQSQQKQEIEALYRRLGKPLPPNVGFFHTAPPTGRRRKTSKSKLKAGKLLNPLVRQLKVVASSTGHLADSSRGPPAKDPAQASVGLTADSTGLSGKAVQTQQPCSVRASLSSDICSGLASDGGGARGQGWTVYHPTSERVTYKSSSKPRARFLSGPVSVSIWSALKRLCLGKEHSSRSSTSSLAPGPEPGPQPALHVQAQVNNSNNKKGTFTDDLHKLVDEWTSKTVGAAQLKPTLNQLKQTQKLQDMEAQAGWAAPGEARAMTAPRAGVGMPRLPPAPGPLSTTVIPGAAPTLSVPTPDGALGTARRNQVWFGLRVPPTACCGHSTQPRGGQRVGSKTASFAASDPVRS

[8] = target: Citron Rho-interacting kinase (Homo sapiens) (UniProt O14578); settings: Compound concentration 1000.0 nM
[9] = target: Atypical kinase COQ8B, mitochondrial (Homo sapiens) (UniProt Q96D53); settings: Compound concentration 1000.0 nM
[10] = target: Serine/threonine-protein kinase Nek2 (Homo sapiens) (UniProt P51955); settings: Compound concentration 1000.0 nM
[11] = target: RAF proto-oncogene serine/threonine-protein kinase (Homo sapiens) (UniProt P04049); settings: Compound concentration 1000.0 nM
[12] = system: Tyrosine-protein kinase ABL1 (Homo sapiens), P00519 [T315I]; settings: Compound concentration 1000.0 nM
[13] = target: Proto-oncogene tyrosine-protein kinase Src (Homo sapiens) (UniProt P12931); settings: Compound concentration 1000.0 nM
[14] = target: Bone morphogenetic protein receptor type-1B (Homo sapiens) (UniProt O00238); settings: Compound concentration 1000.0 nM
[15] = target: Serine/threonine-protein kinase Nek6 (Homo sapiens) (UniProt Q9HC98); settings: Compound concentration 1000.0 nM
Sequence of Serine/threonine-protein kinase Nek6 (Homo sapiens) (Q9HC98 whole entry, the tested form may be a part): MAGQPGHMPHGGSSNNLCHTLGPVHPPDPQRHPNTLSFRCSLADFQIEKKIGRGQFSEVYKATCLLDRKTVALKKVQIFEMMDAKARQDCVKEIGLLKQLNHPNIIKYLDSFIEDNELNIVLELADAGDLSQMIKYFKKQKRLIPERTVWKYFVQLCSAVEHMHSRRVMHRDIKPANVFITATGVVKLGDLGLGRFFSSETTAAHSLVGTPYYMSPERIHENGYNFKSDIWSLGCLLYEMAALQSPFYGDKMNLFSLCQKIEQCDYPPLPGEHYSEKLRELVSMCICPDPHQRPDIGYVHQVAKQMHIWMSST

[16] = target: Ankyrin repeat and protein kinase domain-containing protein 1 (Homo sapiens) (UniProt Q8NFD2); settings: Compound concentration 1000.0 nM
[17] = target: Histamine H4 receptor (Homo sapiens) (UniProt Q9H3N8); settings: Compound concentration 10.0 uM
[18] = system: Hepatocyte growth factor receptor (Homo sapiens), P08581 [M1250T]; settings: Compound concentration 1000.0 nM
[19] = system: Phosphatidylinositol 4,5-bisphosphate 3-kinase catalytic subunit alpha isoform (Homo sapiens), P42336 [Q546K]; settings: Compound concentration 1000.0 nM
[20] = target: Serine/threonine-protein kinase D1 (Homo sapiens) (UniProt Q15139); settings: Compound concentration 1000.0 nM
[21] = target: Tyrosine-protein kinase CSK (Homo sapiens) (UniProt P41240); settings: Compound concentration 1000.0 nM
[22] = system: Epidermal growth factor receptor (Homo sapiens), P00533 [UNDEFINED MUTATION]; settings: Compound concentration 1000.0 nM
[23] = target: Serine/threonine-protein kinase Nek4 (Homo sapiens) (UniProt P51957); settings: Compound concentration 1000.0 nM
[24] = target: Serine/threonine-protein kinase 35 (Homo sapiens) (UniProt Q8TDR2); settings: Compound concentration 1000.0 nM
[25] = system: Epidermal growth factor receptor (Homo sapiens), P00533 [L858R,T790M]; settings: Compound concentration 1000.0 nM
[26] = target: Myotonin-protein kinase (Homo sapiens) (UniProt Q09013); settings: Compound concentration 1000.0 nM
[27] = target: Protein kinase C theta type (Homo sapiens) (UniProt Q04759); settings: Compound concentration 1000.0 nM
[28] = target: Serine/threonine-protein kinase SIK1 (Homo sapiens) (UniProt P57059); settings: Compound concentration 1000.0 nM
[29] = system: Mast/stem cell growth factor receptor Kit (Homo sapiens), P10721 [D816V]; settings: Compound concentration 1000.0 nM
[30] = target: Phosphatidylinositol 3-kinase catalytic subunit type 3 (Homo sapiens) (UniProt Q8NEB9); settings: Compound concentration 1000.0 nM
[31] = target: D(2) dopamine receptor (Homo sapiens) (UniProt P14416); settings: Compound concentration 10.0 uM
Sequence of D(2) dopamine receptor (Homo sapiens) (P14416 whole entry): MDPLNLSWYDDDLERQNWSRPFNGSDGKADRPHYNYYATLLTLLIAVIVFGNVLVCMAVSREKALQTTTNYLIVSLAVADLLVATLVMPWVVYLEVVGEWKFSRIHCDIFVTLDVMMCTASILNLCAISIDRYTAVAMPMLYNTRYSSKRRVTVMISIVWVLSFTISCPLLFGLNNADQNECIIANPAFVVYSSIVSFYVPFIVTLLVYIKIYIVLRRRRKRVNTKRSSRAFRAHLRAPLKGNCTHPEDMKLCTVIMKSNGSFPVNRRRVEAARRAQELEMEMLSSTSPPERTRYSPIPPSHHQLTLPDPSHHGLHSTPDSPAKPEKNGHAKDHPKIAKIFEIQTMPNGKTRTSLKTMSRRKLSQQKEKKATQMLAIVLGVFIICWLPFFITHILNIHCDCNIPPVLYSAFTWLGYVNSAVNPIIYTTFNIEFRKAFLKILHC

[32] = target: Serine/threonine-protein kinase Nek11 (Homo sapiens) (UniProt Q8NG66); settings: Compound concentration 1000.0 nM
[33] = target: RAC-beta serine/threonine-protein kinase (Homo sapiens) (UniProt P31751); settings: Compound concentration 1000.0 nM
[34] = system: Phosphatidylinositol 4,5-bisphosphate 3-kinase catalytic subunit alpha isoform (Homo sapiens), P42336 [M1043I]; settings: Compound concentration 1000.0 nM
[35] = target: Mitogen-activated protein kinase 8 (Homo sapiens) (UniProt P45983); settings: Compound concentration 1000.0 nM
Sequence of Mitogen-activated protein kinase 8 (Homo sapiens) (P45983 whole entry): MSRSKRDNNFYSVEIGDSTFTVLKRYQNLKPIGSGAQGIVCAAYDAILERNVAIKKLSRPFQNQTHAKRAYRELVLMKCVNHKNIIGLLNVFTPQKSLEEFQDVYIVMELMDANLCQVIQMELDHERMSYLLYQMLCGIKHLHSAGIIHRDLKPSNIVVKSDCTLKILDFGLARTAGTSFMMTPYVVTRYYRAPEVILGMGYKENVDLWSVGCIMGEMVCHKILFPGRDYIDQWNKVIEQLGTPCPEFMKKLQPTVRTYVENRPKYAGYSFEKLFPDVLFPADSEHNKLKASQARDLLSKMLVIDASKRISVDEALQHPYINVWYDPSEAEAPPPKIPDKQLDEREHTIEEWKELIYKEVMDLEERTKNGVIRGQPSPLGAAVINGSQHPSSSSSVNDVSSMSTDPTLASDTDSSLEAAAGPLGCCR

[36] = target: Phosphatidylinositol 4-phosphate 5-kinase type-1 gamma (Homo sapiens) (UniProt O60331); settings: Compound concentration 1000.0 nM
Sequence of Phosphatidylinositol 4-phosphate 5-kinase type-1 gamma (Homo sapiens) (O60331 whole entry): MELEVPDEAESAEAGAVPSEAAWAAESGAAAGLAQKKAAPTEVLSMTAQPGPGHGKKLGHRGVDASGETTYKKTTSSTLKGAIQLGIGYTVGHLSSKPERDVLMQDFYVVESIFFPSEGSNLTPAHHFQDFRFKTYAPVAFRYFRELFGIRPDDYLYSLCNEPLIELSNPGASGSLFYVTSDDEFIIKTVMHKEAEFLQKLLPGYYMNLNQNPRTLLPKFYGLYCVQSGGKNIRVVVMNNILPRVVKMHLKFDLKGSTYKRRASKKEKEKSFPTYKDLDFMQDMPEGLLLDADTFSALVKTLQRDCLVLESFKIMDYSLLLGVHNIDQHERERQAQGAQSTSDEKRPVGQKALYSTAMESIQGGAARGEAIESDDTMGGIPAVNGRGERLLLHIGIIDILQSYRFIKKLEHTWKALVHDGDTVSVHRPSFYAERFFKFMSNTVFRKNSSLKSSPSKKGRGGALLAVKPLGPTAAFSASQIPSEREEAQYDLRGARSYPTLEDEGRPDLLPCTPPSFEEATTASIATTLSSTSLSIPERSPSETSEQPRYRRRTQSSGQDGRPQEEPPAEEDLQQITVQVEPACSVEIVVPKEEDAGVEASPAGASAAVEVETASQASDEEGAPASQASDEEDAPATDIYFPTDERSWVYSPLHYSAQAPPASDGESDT

[37] = target: Homeodomain-interacting protein kinase 1 (Homo sapiens) (UniProt Q86Z02); settings: Compound concentration 1000.0 nM
[38] = system: Phosphatidylinositol 4,5-bisphosphate 3-kinase catalytic subunit alpha isoform (Homo sapiens), P42336 [E545K]; settings: Compound concentration 1000.0 nM
[39] = target: Tyrosine-protein kinase ABL2 (Homo sapiens) (UniProt P42684); settings: Compound concentration 1000.0 nM
[40] = target: G protein-coupled receptor kinase 4 (Homo sapiens) (UniProt P32298); settings: Compound concentration 1000.0 nM
[41] = target: Tyrosine-protein kinase JAK1 (Homo sapiens) (UniProt P23458); settings: Compound concentration 1000.0 nM
[42] = target: Dual specificity testis-specific protein kinase 1 (Homo sapiens) (UniProt Q15569); settings: Compound concentration 1000.0 nM
[43] = target: Cyclin-dependent kinase 4 (Homo sapiens) (UniProt P11802); settings: Compound concentration 1000.0 nM
[44] = system: Epidermal growth factor receptor (Homo sapiens), P00533 [T790M]; settings: Compound concentration 1000.0 nM
[45] = target: Protein-tyrosine kinase 6 (Homo sapiens) (UniProt Q13882); settings: Compound concentration 1000.0 nM
Sequence of Protein-tyrosine kinase 6 (Homo sapiens) (Q13882 whole entry, looked up): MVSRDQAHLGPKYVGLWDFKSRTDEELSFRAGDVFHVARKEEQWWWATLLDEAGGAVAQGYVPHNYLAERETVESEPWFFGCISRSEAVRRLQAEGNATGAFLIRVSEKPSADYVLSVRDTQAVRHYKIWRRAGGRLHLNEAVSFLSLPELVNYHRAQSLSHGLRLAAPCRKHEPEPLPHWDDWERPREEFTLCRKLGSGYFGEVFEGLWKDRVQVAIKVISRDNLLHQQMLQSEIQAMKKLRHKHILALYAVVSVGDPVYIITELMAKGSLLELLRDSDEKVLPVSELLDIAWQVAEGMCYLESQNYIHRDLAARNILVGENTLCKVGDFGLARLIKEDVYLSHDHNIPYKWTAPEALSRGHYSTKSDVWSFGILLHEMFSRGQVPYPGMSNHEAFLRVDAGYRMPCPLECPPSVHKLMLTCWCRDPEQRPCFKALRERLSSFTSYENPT

Structure (SMILES): C[C@H](c1cccc(C#N)c1)n1cc(Cl)cc(C(N)=O)c1=N [(R)-9s]
- residual activity [1]: 80%
- residual activity [2]: 100%
- residual activity [3]: 100%
- residual activity [4]: 100%
- residual activity [5]: 88%
- residual activity [6]: 97%
- residual activity [7]: 58%
- residual activity [8]: 96%
- residual activity [9]: 100%
- residual activity [10]: 100%
- residual activity [11]: 100%
- residual activity [12]: 96%
- residual activity [13]: 88%
- residual activity [14]: 94%
- residual activity [15]: 94%
- residual activity [16]: 98%
- inhibition [17]: -2.33%
- residual activity [18]: 100%
- residual activity [19]: 100%
- residual activity [20]: 100%
- residual activity [21]: 100%
- residual activity [22]: 75%
- residual activity [23]: 100%
- residual activity [24]: 88%
- residual activity [25]: 89%
- residual activity [26]: 100%
- residual activity [27]: 97%
- residual activity [28]: 100%
- residual activity [29]: 87%
- residual activity [30]: 78%
- inhibition [31]: 1.55%
- residual activity [32]: 100%
- residual activity [33]: 100%
- residual activity [34]: 100%
- residual activity [35]: 72%
- residual activity [36]: 99%
- residual activity [37]: 83%
- residual activity [38]: 82%
- residual activity [39]: 90%
- residual activity [40]: 100%
- residual activity [41]: 92%
- residual activity [42]: 86%
- residual activity [43]: 88%
- residual activity [44]: 80%
- residual activity [45]: 95%

Structure (SMILES): C[C@@H](c1cccc(C#N)c1)n1cc(Cl)cc(C(N)=O)c1=N [(S)-9s]
- residual activity [1]: 86%
- residual activity [2]: 82%
- residual activity [3]: 100%
- residual activity [4]: 100%
- residual activity [5]: 68%
- residual activity [6]: 89%
- residual activity [7]: 67%
- residual activity [8]: 100%
- residual activity [9]: 88%
- residual activity [10]: 100%
- residual activity [11]: 100%
- residual activity [12]: 0%
- residual activity [13]: 99%
- residual activity [14]: 89%
- residual activity [15]: 79%
- residual activity [16]: 95%
- inhibition [17]: 0.47%
- residual activity [18]: 99%
- residual activity [19]: 100%
- residual activity [20]: 90%
- residual activity [21]: 97%
- residual activity [22]: 93%
- residual activity [23]: 96%
- residual activity [24]: 100%
- residual activity [25]: 86%
- residual activity [26]: 100%
- residual activity [27]: 86%
- residual activity [28]: 96%
- residual activity [29]: 94%
- residual activity [30]: 97%
- inhibition [31]: -3.06%
- residual activity [32]: 92%
- residual activity [33]: 93%
- residual activity [34]: 100%
- residual activity [35]: 75%
- residual activity [36]: 100%
- residual activity [37]: 79%
- residual activity [38]: 88%
- residual activity [39]: 84%
- residual activity [40]: 99%
- residual activity [41]: 93%
- residual activity [42]: 74%
- residual activity [43]: 99%
- residual activity [44]: 93%
- residual activity [45]: 85%
